Values joined by “and” are separate entries in the source; they are usually repeats but may differ in a detail not shown here. Equal entries are not always repeated.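 Test compounds were applied to cells in 96-well plates for 48 hours at 5 doses. Here, GI50 denotes the concentration required for 50% inhibition of growth. Definition used: TGI = concentration required for complete inhibition of growth.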 Starred links: 1 amine or outer side, 2 acyl side, 3 side chain; linkers in the order of their positions; H or OH if unused. Positions of bridges follow the written chain, without caps; N, C: chain ends. Non-standard residues stand in square brackets, D forms with d. Residues, ends and D or L forms follow the SMILES beside them. Chains are numbered I, II in the order given. Actinocin(1to9) = Cc1c2oc3c(C)ccc(C(=O)[*:2])c3nc-2c(C(=O)[*:1])c(N)c1=O; NMeV = CN[CH](C(=O)O)C(C)C; Sar = CNCC(=O)O

Experimental findings from PubChem BioAssay (NCI) are described below.

Some test systems named below: HOP-62 NSCLC; HL-60(TB) leukemia; A498 renal; BT-549 breast; RXF 393 renal; NCI/ADR-RES ovarian; OVCAR-8 ovarian; MOLT-4 leukemia; OVCAR-3 ovarian; MCF7 breast; NCI-H23 lung.
Holding throughout (experiment): NCI anticancer screen, dose series, 48 h

As for `O=C(CSc1nc2ccc([N+](=O)[O-])cc2s1)c1ccc2ccccc2c1`, the TGI in the assay on HOP-62 NSCLC, in the assay with HL-60(TB) leukemia, with A498 renal, in the assay with BT-549 breast, with RXF 393 renal and in the assay on NCI/ADR-RES ovarian was over 100 µM throughout. In addition, the TGI in the assay on OVCAR-8 ovarian, in the assay with MOLT-4 leukemia, in the assay on OVCAR-3 ovarian, in the assay on MCF7 breast and in the assay with NCI-H23 lung was over 100 µM throughout.

With `Nc1ncnc2c1sc1nc3ccccc3n12`, the TGI in the assay with HOP-62 NSCLC was over 100 µM; with A498 renal, over 100 µM; in the assay on BT-549 breast, over 100 µM; with RXF 393 renal, over 69.1 µM; in the assay with NCI/ADR-RES ovarian, over 100 µM; in the assay with OVCAR-8 ovarian, over 100 µM. Besides, the TGI with MOLT-4 leukemia was over 78.7 µM; with OVCAR-3 ovarian, over 100 µM; with MCF7 breast it was over 100 µM; in the assay with NCI-H23 lung, over 100 µM.

Turning to `CCC(C)C1NC(=O)C(NC(=O)c2c3nc4c(C(=O)NC5C(=O)NC(C(C)CC)C(=O)N6CCCC6C(=O)N(C)CC(=O)N(C)C(C(C)C)C(=O)OC5C)ccc(C)c4oc-3c(C)c(=O)c2N)C(C)OC(=O)C(C(C)C)N(C)C(=O)CN(C)C(=O)C2CCCN2C1=O` (stereo not given) (I: TIP[Sar][NMeV] / II: TIP[Sar][NMeV]; ester I:1-I:C, II:1-II:C; linker I:N-II:N via Actinocin(1to9); configuration not given here), the TGI with HL-60(TB) leukemia is 0.0186 µM; in the assay on A498 renal it was 0.0629 µM; in the assay with BT-549 breast, 0.58 µM; in the assay on RXF 393 renal, 0.0214 µM and 0.048 µM; in the assay with NCI/ADR-RES ovarian, 2.63 µM; in the assay with OVCAR-8 ovarian, 0.125 µM. In addition, the TGI with MOLT-4 leukemia was found to be 0.0144 µM; with OVCAR-3 ovarian, 0.0389 µM; in the assay on NCI-H23 lung, 0.0168 µM.

Regarding `CC(C)(C)OC(=O)NC(CCCCNC(=O)OCc1ccccc1)C(=O)NCCNc1ccc(NCCNC(=O)C(CCCCNC(=O)OCc2ccccc2)NC(=O)OC(C)(C)C)c2c1C(=O)c1ccccc1C2=O` (stereo not given), the TGI in the assay on HOP-62 NSCLC is over 74.3 µM; in the assay with A498 renal it was over 100 µM; with BT-549 breast it was over 100 µM; with RXF 393 renal, 88.9 µM; in the assay with NCI/ADR-RES ovarian, over 100 µM; with OVCAR-8 ovarian, over 78.1 µM. Besides, the TGI was over 100 µM with MOLT-4 leukemia, over 100 µM in the assay on OVCAR-3 ovarian, 27.2 µM in the assay with MCF7 breast and over 100 µM with NCI-H23 lung.

As to `Cn1c(=O)[nH]c2nncnc2c1=O`, the TGI in the assay on HOP-62 NSCLC is 181 µM; in the assay on HL-60(TB) leukemia it was 55.2 µM; in the assay on A498 renal it was 475 µM; with RXF 393 renal, 123 µM; in the assay with NCI/ADR-RES ovarian it was over 625 µM; with OVCAR-8 ovarian, over 62.5 µM. Also, the TGI was over 625 µM in the assay on MOLT-4 leukemia, 298 µM in the assay with OVCAR-3 ovarian, over 501 µM with MCF7 breast and 420 µM in the assay on NCI-H23 lung.

Take `O=c1[nH]c(Nc2ccc(Cl)c(C(F)(F)F)c2)nc2nc[nH]c12`: the TGI in the assay with HOP-62 NSCLC is over 100 µM; in the assay with A498 renal it was 60.9 µM; in the assay with BT-549 breast, over 100 µM; with RXF 393 renal, over 100 µM; in the assay on NCI/ADR-RES ovarian it was over 100 µM; with OVCAR-8 ovarian, over 100 µM. For the same molecule, the TGI in the assay with MOLT-4 leukemia was 62.4 µM; in the assay on OVCAR-3 ovarian, over 100 µM; in the assay with MCF7 breast, over 100 µM; in the assay on NCI-H23 lung it was over 100 µM.

Regarding `Cc1ccccc1N=Nc1c(O)c(S(=O)(=O)O)cc2cc(S(=O)(=O)O)ccc12`, the TGI in the assay on HOP-62 NSCLC, with HL-60(TB) leukemia, with A498 renal, in the assay on BT-549 breast, in the assay on RXF 393 renal and with NCI/ADR-RES ovarian was over 100 µM in each case. The TGI in the assay on OVCAR-8 ovarian, with MOLT-4 leukemia, with OVCAR-3 ovarian, in the assay on MCF7 breast and in the assay with NCI-H23 lung was over 100 µM in each case.

For the molecule `COc1ccc(C(=O)C2=NON3OC23C(=O)c2ccc(OC)cc2)cc1` (stereo not given), the TGI with HOP-62 NSCLC is over 100 µM; with A498 renal it was 18.2 µM; with RXF 393 renal, 17.1 µM; in the assay with OVCAR-8 ovarian it was 21 µM; in the assay on MOLT-4 leukemia, over 21.9 µM; with OVCAR-3 ovarian it was 23.3 µM. Further, the TGI in the assay with NCI-H23 lung worked out at 17.8 µM.

With `COCC1CCCN1c1ccc(C=N/C(C#N)=C(\N)C#N)cc1` (stereo not given), the GI50 in the assay on HOP-62 NSCLC was 43.6 µM; in the assay on A498 renal, over 100 µM; in the assay with BT-549 breast it was 98.9 µM; with RXF 393 renal, 38.4 µM; in the assay on NCI/ADR-RES ovarian, over 100 µM; in the assay with OVCAR-8 ovarian it was 45.3 µM. Also, the values for the GI50 with OVCAR-3 ovarian, in the assay with MCF7 breast and with NCI-H23 lung were 46.1 µM, 33.4 µM and over 100 µM, respectively. Besides, the TGI with HOP-62 NSCLC, in the assay on A498 renal, in the assay on BT-549 breast, with RXF 393 renal, in the assay with NCI/ADR-RES ovarian and in the assay on OVCAR-8 ovarian was over 100 µM throughout. Besides, the TGI in the assay with OVCAR-3 ovarian, in the assay on MCF7 breast and in the assay with NCI-H23 lung was over 100 µM each time.

Regarding `OCc1cn(C(c2ccccc2)(c2ccccc2)c2ccccc2)cn1`, the TGI with HOP-62 NSCLC, with HL-60(TB) leukemia, with NCI/ADR-RES ovarian, in the assay with OVCAR-8 ovarian, in the assay on MOLT-4 leukemia and in the assay with OVCAR-3 ovarian was over 100 µM in each case. In the assay on NCI-H23 lung, this molecule came in with a TGI of over 100 µM.

As for `COc1ccc2nc3c(C(=O)NCCN(C)C)cccc3cc2c1`, the TGI in the assay with HOP-62 NSCLC amounted to 7.71 µM; with HL-60(TB) leukemia it was 4.64 µM; in the assay with A498 renal, 3.08 µM; with RXF 393 renal, 5.28 µM; in the assay with NCI/ADR-RES ovarian it was 4.99 µM; with OVCAR-8 ovarian, 4.46 µM. The TGI is 8.4 µM with MOLT-4 leukemia, over 28.6 µM in the assay on OVCAR-3 ovarian, 7.22 µM with MCF7 breast and 5.09 µM in the assay on NCI-H23 lung.

In the case of `COc1nc2[nH]ccc2c(=O)[nH]1`, the TGI in the assay on HL-60(TB) leukemia, with A498 renal, in the assay on RXF 393 renal, with OVCAR-8 ovarian, in the assay with MOLT-4 leukemia and with NCI-H23 lung was over 100 µM throughout.

Take `CC(C)(C)OC(=O)n1c2ccccc2c2c(=O)nc(N3CCCCC3)sc21`: the TGI in the assay on HOP-62 NSCLC, in the assay with HL-60(TB) leukemia, in the assay with A498 renal, with BT-549 breast, in the assay on NCI/ADR-RES ovarian and in the assay on OVCAR-8 ovarian was over 100 µM in each case. The TGI in the assay on MOLT-4 leukemia, in the assay with OVCAR-3 ovarian and in the assay with NCI-H23 lung was over 100 µM throughout.

Take `Nc1c(C(=O)O)nnc2cc(Cl)c(Cl)cc12`: the TGI in the assay on HOP-62 NSCLC, in the assay with HL-60(TB) leukemia, with A498 renal, in the assay with BT-549 breast, in the assay on NCI/ADR-RES ovarian and in the assay with OVCAR-8 ovarian was over 100 µM throughout. The TGI in the assay with MOLT-4 leukemia, in the assay with OVCAR-3 ovarian, with MCF7 breast and with NCI-H23 lung was over 100 µM each time.

Consider `COc1cc2oc(=O)ccc2cc1C(=O)CC(C)C`, for which the TGI in the assay with HOP-62 NSCLC, with HL-60(TB) leukemia, with A498 renal, in the assay with BT-549 breast, with NCI/ADR-RES ovarian and in the assay with OVCAR-8 ovarian was over 100 µM in each case. For the same molecule, the TGI in the assay on MOLT-4 leukemia, in the assay with OVCAR-3 ovarian, in the assay with MCF7 breast and with NCI-H23 lung was over 100 µM in each case.

For the molecule `CC(=O)OC1CC[C@@]2(C)C(=CC[C@@H]3[C@@H]2CC[C@]2(C)Nc4nn(S(C)(=O)=O)cc4C[C@@H]32)C1` (stereo not given in full), the TGI in the assay on HOP-62 NSCLC was over 100 µM; in the assay on A498 renal it was over 100 µM; in the assay with BT-549 breast, 45 µM; in the assay on RXF 393 renal it was 95.3 µM; in the assay with NCI/ADR-RES ovarian it was over 100 µM; in the assay on OVCAR-8 ovarian, over 100 µM. The TGI in the assay with MOLT-4 leukemia is 53.9 µM; in the assay with OVCAR-3 ovarian, 57.8 µM; in the assay with MCF7 breast, 40.7 µM; with NCI-H23 lung it was over 100 µM.

Take `N#CC12Cc3cc4c(cc3-c3cccc(c31)CCN2C(=O)c1ccccc1)OCO4` (stereo not given): the TGI in the assay with HOP-62 NSCLC, with HL-60(TB) leukemia, with A498 renal, with RXF 393 renal, with OVCAR-8 ovarian and in the assay on MOLT-4 leukemia was over 100 µM each time. The TGI with OVCAR-3 ovarian and with NCI-H23 lung was over 100 µM throughout.

With `C[N+]1(CCC(=O)c2ccco2)CC2CCC(CC2)C1` (stereo not given), the TGI with A498 renal, in the assay on BT-549 breast, in the assay on RXF 393 renal, in the assay with NCI/ADR-RES ovarian, in the assay with OVCAR-8 ovarian and with MOLT-4 leukemia was over 100 µM in each case. Also, the TGI with OVCAR-3 ovarian, in the assay with MCF7 breast and in the assay on NCI-H23 lung was over 100 µM throughout.

In the case of `O=c1ccc2nc3cc(Br)ccc3sc-2c1`, the TGI in the assay on HOP-62 NSCLC was over 100 µM; with HL-60(TB) leukemia, 37.5 µM; with MOLT-4 leukemia, over 100 µM; with OVCAR-3 ovarian, over 100 µM; in the assay on NCI-H23 lung, over 100 µM.

For `O=C(O)c1ccc(C(=O)c2ccccc2C(=O)O)cc1C(=O)O`, the TGI in the assay with HOP-62 NSCLC, in the assay on HL-60(TB) leukemia, in the assay on A498 renal, in the assay on BT-549 breast, with RXF 393 renal and in the assay with NCI/ADR-RES ovarian was over 100 µM each time. Moreover, the TGI in the assay with OVCAR-8 ovarian, with MOLT-4 leukemia, in the assay with OVCAR-3 ovarian, in the assay with MCF7 breast and in the assay with NCI-H23 lung was over 100 µM throughout.

As for `COCCNCc1ccc(-c2cc3nccc(Oc4ccc(NC(=S)NC(=O)Cc5ccc(F)cc5)cc4F)c3s2)nc1`, the GI50 in the assay with A498 renal was 2.11 µM; in the assay with NCI/ADR-RES ovarian, 2.02 µM; in the assay on OVCAR-8 ovarian, 2.17 µM; in the assay on OVCAR-3 ovarian, 1.93 µM; in the assay with NCI-H23 lung it was 1.51 µM. The TGI in the assay with A498 renal amounted to 8.71 µM; in the assay on NCI/ADR-RES ovarian it was 5.2 µM; in the assay with OVCAR-8 ovarian, 5.12 µM; with OVCAR-3 ovarian, 3.52 µM; in the assay on NCI-H23 lung, 4.63 µM.

In the case of `CN(C)c1ccc(C=Nc2ccc(Oc3ccc(Cl)cc3)c(Cl)c2)cc1`, the TGI in the assay on HOP-62 NSCLC came to 51.8 µM; in the assay on HL-60(TB) leukemia, 40.1 µM; with BT-549 breast, 44.1 µM; in the assay with NCI/ADR-RES ovarian, 33.2 µM; with OVCAR-8 ovarian, 36.8 µM; in the assay with MOLT-4 leukemia, 66.3 µM. For the same molecule, the TGI in the assay with OVCAR-3 ovarian was 32.4 µM; with MCF7 breast, over 100 µM; in the assay with NCI-H23 lung, 39.9 µM.
